For one compound, kcat results are on record in patent publication US8993839B2, “Plant-based production of heterologous proteins” (The Regents of the University of California, priority 2010, dated 2015).

The experiment has as its target Acidothermus cellulolyticus β-1,4-endoglucanase E1 (P. pastoris-produced) (Acidothermus cellulolyticus, UniProt P54583). In words: Michaelis-Menten kinetics of purified E1 (produced in P. pastoris, IMAC purified): cleavage of MUC to cellobiose and MU at various temperatures. It is filed as biochemical. The conditions noted are these: substrate MUC, E1 concentration by Bradford assay. How it is done:
Endoglucanase activity assay: Endoglucanase (E1) cleaves methylumbelliferyl-tagged cellobiose (MUC), releasing methylumbelliferone (MU). The MU fluorescence can be measured to determine E1 activity. The relative fluorescence readings of 0.024 to 3.0 μM MU solutions were used to create a linear standard curve. Samples containing E1 were diluted so the concentration of MU released fell within the standard curve. A 60 μl aliquot of diluted supernatant was added to 540 μl of acetate buffer (200 mM acetate, pH 5.5, 100 mM NaCl) and 200 μl of substrate (500 μM MUC). 200 μl of reaction was sampled at time zero and after 30 minutes and added to 800 μl of stop buffer (150 mM glycine, pH 10). The change in fluorescence over time was measured with a VersaFluor fluorometer (Bio-Rad). Fluorescence was converted to an activity, and the specific activity reported in the literature was used to approximate the concentration of E1 in Pichia supernatants. The Michaelis-Menten kinetic parameters of purified endoglucanase were determined. The E1 was produced in P. pastoris and purified by IMAC (immobilized metal affinity chromatography). E1 cleaves the substrate (MUC) into cellobiose and a fluorophore (MU), the concentration of which can be monitored over time. When run at 65° C. and […] substrate, this is the reaction used for the activity assay for E1 in plant extracts and yeast cultures. In this set of experiments, the substrate concentration was varied to determine the kinetic parameters at different temperatures. The rate for a reaction displaying Michaelis-Menten kinetics is shown in Equation 1. The rate depends on the catalysis rate (kcat), the total enzyme concentration (ET), the adsorption/desorption rates which are lumped into the Michaelis-Menten constant (KM), and the substrate concentration (S). At high substrate concentrations (S>>KM), the rate approaches a maximum, and […] is often written as Vmax. The parameters Vmax and KM can be determined experimentally by varying the substrate concentration (S) and measuring the reaction rate (V) at each concentration. Equation 1 can be rearranged as a linear equation (Equation 2). When the reciprocal of the reaction rate (V) is plotted against the reciprocal of the substrate concentration (S), a line fitting the data points can be used to determine KM/Vmax (the slope) and 1/Vmax (y-intercept). A Bradford assay was used to determine the E1 protein concentration in each sample, and this value of ET was used to calculate the kcat values in Table 1. Table 1 depicts a summary of Michaelis-Menten parameters for E1-catalyzed degradation of MUC to MU at various temperatures.

Acidothermus cellulolyticus β-1,4-endoglucanase E1 (P. pastoris-produced), sequence (P54583 other isoform, or with tags, fused parts or gaps): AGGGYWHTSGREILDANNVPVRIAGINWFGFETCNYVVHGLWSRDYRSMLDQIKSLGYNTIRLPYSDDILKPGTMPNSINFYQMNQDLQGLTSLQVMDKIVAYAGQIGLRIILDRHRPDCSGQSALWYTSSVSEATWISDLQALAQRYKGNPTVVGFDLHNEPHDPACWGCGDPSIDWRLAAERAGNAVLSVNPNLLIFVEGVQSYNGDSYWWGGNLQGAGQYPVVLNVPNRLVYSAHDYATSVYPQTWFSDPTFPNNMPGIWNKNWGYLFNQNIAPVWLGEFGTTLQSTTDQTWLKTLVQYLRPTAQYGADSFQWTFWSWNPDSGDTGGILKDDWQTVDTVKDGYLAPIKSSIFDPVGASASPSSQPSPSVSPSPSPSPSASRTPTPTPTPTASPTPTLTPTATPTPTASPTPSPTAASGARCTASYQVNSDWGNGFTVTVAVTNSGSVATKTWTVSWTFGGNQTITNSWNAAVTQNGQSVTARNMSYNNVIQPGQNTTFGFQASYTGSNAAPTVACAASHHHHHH

For the compound `Cc1cc(=O)oc2cc(O[C@@H]3O[C@H](CO)[C@@H](O[C@@H]4O[C@H](CO)[C@@H](O)[C@H](O)[C@H]4O)[C@H](O)[C@H]3O)ccc12` [MUC, methylumbelliferyl-tagged cellobiose], the kcat worked out at 106 ± 5 L/min (50 °C); 309 ± 13 L/min (65 °C); 667 ± 92 L/min (80 °C); 292 ± 284 L/min (93 °C, uncertainty approaches 100%, not used further).
